Several values for one entry are separate records, joined by “and”; a condition that tells them apart may be missing. Identical values can stand only once. Entries after “also recorded” stand apart in the source; their conditions may differ. Marks after values point to notes of the source that are not given here.
Tests used:
[1] = tested on: laser-induced CNV in monkeys; test: Laser-induced choroidal neovascularization in monkeys, fluorescein angiography lesion grading; format: in vivo, cynomolgus monkeys (Macaca fascicularis); conditions: for Incidence of CNV lesions, Lesion Grade I (% Total) / Incidence of CNV lesions, Lesion Grade II (% Total) / Incidence of CNV lesions, Lesion Grade III (% Total) / Incidence of CNV lesions, Lesion Grade IV (% Total): intravitreal, both eyes, days 1 and 15, 1.5 mg/eye (Lucentis 0.5 mg/eye); for Overall grade IV lesions versus vehicle control group: all time points together, Chi square test; for Incidence of grade IV lesions compared to vehicle control: days 22, 29 and 37, 1.5 mg/eye in oil formulation; for Overall Grade IV lesions (%): days 22, 29 and 37 summed, 1.5 mg/eye intravitreal days 1 and 15
Experimental: Study was performed in three phases. In phases Ia and Ib, the behavior of the suspension in aqueous (Ia) and oil (Ib) formulations, and multiple dosing regimens as well as any adverse effect due to multiple dosing at 3 mg/eye (Ia) or 1.5 (Ib) were investigated. In phase II test articles were administered twice during the study period on days 1 and 15. Eyes were examined with an indirect ophthalmoscope and fundus camera.
Adult male cynomolgus monkeys (Macaca fascicularis) age 2-7 years old were used to test the efficacy of BOL-303050-X, BOL-303054-X and BOL-303055-X. Lucentis® (ranibizumab) was used as historic control.
Both eyes of 46 monkeys were examined at baseline and then 42 animals were randomized into 5 groups. On Phase II Day 8 of Dosing, the animals were anesthetized with ketamine and dexmedetomidine and the macula of each eye of the animals in Groups 1 through […] underwent laser treatment by a retinal surgeon with a 532 nm diode green laser (OcuLight GL, IRIDEX Corp. Inc., Mountain View, Calif.) using a slit lamp delivery system and a Kaufman-Wallow (Ocular Instruments Inc, Bellevue, Wash.) plano fundus contact lens with Gonak (2.5%) as the coupling agent. Nine laser spot areas were symmetrically placed in the macula of each eye. The laser parameters included a 75 micron spot size and 0.1 second duration. The power setting used was assessed by the ability to produce a blister and a small hemorrhage. […] For areas not adjacent to the fovea, the initial power setting was 500 mW; if a second spot was placed, the power was set to 650 mW. For the area adjacent to the fovea the power settings were 400 mW (initial treatment) and 550 mW (second treatment). At the discretion of the retinal surgeon, power settings were adjusted based on observations at the time of laser. Power setting used for each spot was documented as well as number of burns per spot and whether hemorrhage occurred.
Once the phase Ib study was completed, and it was established that the drug suspension in oil would not interfere with either laser administration, evaluation of CNV or cause adverse effects, phase II was initiated. On days 1, and 15 both eyes of monkeys received 50 μL of Lucentis (0.5 mg/eye), vehicle (0 mg/eye), BOL-303050-X (1.5 mg/eye), BOL-303054-X (1.5 mg/eye) or BOL-303055-X (1.5 mg/eye) (Table 2). Intravitreous injection was performed for each by eye aiming towards mid-vitreous body. Dosing in the right eye was alternated for successive doses (as applicable) at approximately the 11 o'clock and 10 o'clock positions. Dosing in the left eye was alternated for successive doses (as applicable) from approximately the 1 o'clock and 2 o'clock positions.
Animals were anesthetized with ketamine and dexmedetomidine. A topical anesthetic (0.5% proparacaine) was instilled in each eye before dose administration. A wire speculum was used to retract the eyelids. The eyes were cleaned with a 2.5% povidone iodine solution and then rinsed with sterile saline. Each animal was dosed using 1 cc tuberculin syringes and 30 gauge needles.
FA was performed at baseline, on days 22, 29 and 37 (approximately 14, 21 and 28 days post-laser). Digital ocular photographs were taken in conjunction with FA. The FA procedure is well known by people skilled in the art of ophthalmology.
Evaluation of FA was done according to the following grading system for evidence of excessive permeability (fluorescein leakage) or any other abnormalities.
Grade IV lesions are considered to be clinically significant as these most closely resemble the active forms of classical CNV seen in various human retinal disorders, including age-related macular degeneration. Comparison of the incidence of Grade IV lesions between treatment groups was evaluated.
Grade IV lesions were analyzed using either Fisher's exact probability test (2-Tail) or Chi square test (χ2). […]

[2] = tested on: laser-induced CNV in rats; test: Laser-induced choroidal neovascularization in rats (CNV area, fluorescein angiography grades); format: in vivo, Brown Norway rats; conditions: day 14, 200 μg/eye (echistatin 5 μg, Avastin 125 μg); for CNV area / development of CNV on isolectin IB4-labeled flat mounts compared to vehicle-treated controls / Mean score of fluorescein leakage (FA score) compared to vehicle-treated controls: one intravitreal injection after laser; for Number of lesions in FA grade 1 / Number of lesions in FA grade 2 / Number of lesions in FA grade 3 / Number of lesions in FA grade 4: unobstructed lesions
Experimental: Fifty six male Brown Norway rats, approximately 200-300 grams of body weight and two months of age, were used in this study. This study was performed in two cohorts and only one eye of each rat was used.
The pupils were dilated and then the rats were anesthetized as described in baseline examination. The rats were positioned in front of a slit lamp system (Haag-Streit USA, Mason, Ohio). […] A diode laser (OcuLight TX, IRIDEX, Mountain View, Calif.) was used for photocoagulation (532 nm wavelength, 120 mW power, 50 μm spot size and 0.05 seconds duration). For each right eye, a series of six photocoagulation sites were concentrically placed between the major retinal vessels at equal distance (about two optic discs) around the optic nerve head. […] If a significant retinal or subretinal hemorrhage occurred during the laser photocoagulation, then the left eye was be photocoagulated and used as the experimental eye.
Grade 1 lesions had no hyperfluorescence.
The eyes were collected on day 14 and immediately fixed in 4% paraformaldehyde in PBS (pH 7.4) for one and half hours, and then transferred into cold PBS and kept at 4° C. for further processing.
The incubation was performed in a humidified dark chamber with gentle rotation at 4° C. overnight. On the second day, the retinal pigment epithelium (RPE)-choroidsclera complexes were washed with cold IHC buffer, mounted with ProLong® Gold antifade reagent, covered with circular cover glass, and sealed with clear nail polish. Fluorescent images were collected with a confocal microscope (FluoView FV 1000 confocal microscope, Olympus, Center Valley, Pa.) and a 4×, 0.16 numerical aperture objective lens. […] The laser sites were identified by merging images of the green (phalloidin labeling RPE) and the red (isolectin IB4 labeling CNV) channels. CNV complexes were identified using the red channel (isolectin), and their areas were quantified using the FluoView software (Version 1.7a).
Average FA scores and areas of CNV complexes in each group were presented as mean±SEM, unless otherwise indicated. They were analyzed using a one-way ANOVA followed by a Tukey-Kramer test after Box-Cox transformations. All statistics were performed utilizing the statistical analysis software JMP (SAS Institute, Cary, N.C.). p values ≦0.05 were considered statistically significant.

Molecule | Incidence of CNV lesions, Lesion Grade I (% Total) ([1]; Day 22) | Incidence of CNV lesions, Lesion Grade II (% Total) ([1]; Day 22) | Incidence of CNV lesions, Lesion Grade III (% Total) ([1]; Day 22) | Incidence of CNV lesions, Lesion Grade IV (% Total) ([1]; Day 22) | Incidence of CNV lesions, Lesion Grade I (% Total) ([1]; Day 29) | Incidence of CNV lesions, Lesion Grade II (% Total) ([1]; Day 29) | Incidence of CNV lesions, Lesion Grade III (% Total) ([1]; Day 29) | Incidence of CNV lesions, Lesion Grade IV (% Total) ([1]; Day 29) | Incidence of CNV lesions, Lesion Grade I (% Total) ([1]; Day 37) | Incidence of CNV lesions, Lesion Grade II (% Total) ([1]; Day 37) | Incidence of CNV lesions, Lesion Grade III (% Total) ([1]; Day 37) | Incidence of CNV lesions, Lesion Grade IV (% Total) ([1]; Day 37) | Overall grade IV lesions versus vehicle control group [1] | Incidence of grade IV lesions compared to vehicle control [1] | Overall Grade IV lesions (%) [1] | CNV area / development of CNV on isolectin IB4-labeled flat mounts compared to vehicle-treated controls [2] | Mean score of fluorescein leakage (FA score) compared to vehicle-treated controls [2] | Number of lesions in FA grade 1 [2] | Number of lesions in FA grade 2 [2] | Number of lesions in FA grade 4 [2] | also measured
COc1ccc(S(=O)(=O)N[C@@H](CNc2nc(C)nc(N3CCC(c4ccc5c(n4)NCCC5)CC3)c2C)C(=O)O)cc1 [BOL-303050-X] | 126:148 (85.14) % | 12:148 (8.11) % | 4:148 (2.70) % | 4.05% and 6:148 (4.05) % | 132:150 (88.00) % | 11:150 (7.33) % | 3:150 (2.00) % | 2.67% and 4:150 (2.67) % | 136:162 (83.95) % | 15:162 (9.26) % | 8:162 (4.94) % | 1.85% and 3:162 (1.85) % | significantly reduced | reduced compared to vehicle-treated eyes | (2.83)* % | completely inhibited in a small portion of lesions; also recorded: smaller area of CNV | smaller means | 6 | 12 | 2 | Number of lesions in FA grade 3 [2]: 4
COc1c(NC[C@H](NC(=O)OCc2ccccc2)C(=O)O)ncnc1N1CCC(c2ccc3c(n2)NCCC3)CC1 [BOL-303054-X] | 79:133 (59.40) % | 1:133 (0.75) % | 8:133 (6.01) % | 45:133 (33.83) % | 80:133 (60.15) % | 5:133 (3.76) % | 2:133 (1.50) % | 46:133 (34.59) % | 83:136 (61.03) % | 6:136 (4.41) % | 5:136 (3.68) % | 41:136 (30.15) % | not statistically significant | higher incidences of grade IV lesions compared to the vehicle control | (32.84) % |  |  | 0 | 0 | 1 | Number of lesions in FA grade 3 [2]: 5
CCc1nc(NC[C@H](NC(=O)OCc2ccccc2)C(=O)O)c(C)c(N2CCC(c3ccc4c(n3)NCCC4)CC2)n1 [BOL-303055-X] | 73:162 (45.06) % | 6:162 (3.7) % | 6:162 (3.70) % | 47.53% and 77:162 (47.53) % | 75:162 (46.3) % | 5:162 (3.09) % | 12:162 (7.41) % | 43.21% and 70:162 (43.21) % | 80:162 (49.38) % | 7:162 (4.32) % | 5:162 (3.68) % | 44.44% and 72:162 (44.44) % | significantly increased | higher incidences of grade IV lesions compared to the vehicle control | (45.06)* % | smaller area of CNV | smaller means | 0 | 3 | 1 | Number of lesions in FA grade 3 [2]: 2
bevacizumab [Avastin, reference compound] |  |  |  |  |  |  |  |  |  |  |  |  |  |  |  | did not inhibit the development of CNV | smaller means |  | 7 | 15 | 

From patent US20110189174A1, “COMPOSITIONS AND METHODS FOR TREATING, REDUCING, AMELIORATING, ALLEVIATING, OR INHIBITING PROGRESSION OF, PATHOGENIC OCULAR NEOVASCULARIZATION” (priority 2010, published 2011)
